From ChEMBL document CHEMBL4428076 (J Med Chem, 2016)
The source made the active and inactive calls. The calls are words filed in the database; no cut-off is given here.

Assays:
[1] = biological target: Delta-type opioid receptor (Mus musculus, UniProt P32300); experiment: Displacement of [125I]-IBNtxA from mouse delta opioid receptor-1 expressed in CHO cell membranes incubated for 90 mins
Mus musculus [2] = experiment: Antinociceptive activity in MOR-1 6TM/E11 splice variant knock out sc dosed C57BL/6 mouse assessed as increase in reaction time by radiant heat tail flick assay; assay type: functional; conditions: C57BL/6, sc
[3] = biological target: T1, Alpha-2A adrenergic receptor (Homo sapiens) (UniProt P08913); experiment: Displacement of [3H]rauwolscine from recombinant human adrenergic alpha2A receptor expressed in MDCK cell membrane after 90 mins by microbeta scintillation counting method
T1 sequence (whole entry): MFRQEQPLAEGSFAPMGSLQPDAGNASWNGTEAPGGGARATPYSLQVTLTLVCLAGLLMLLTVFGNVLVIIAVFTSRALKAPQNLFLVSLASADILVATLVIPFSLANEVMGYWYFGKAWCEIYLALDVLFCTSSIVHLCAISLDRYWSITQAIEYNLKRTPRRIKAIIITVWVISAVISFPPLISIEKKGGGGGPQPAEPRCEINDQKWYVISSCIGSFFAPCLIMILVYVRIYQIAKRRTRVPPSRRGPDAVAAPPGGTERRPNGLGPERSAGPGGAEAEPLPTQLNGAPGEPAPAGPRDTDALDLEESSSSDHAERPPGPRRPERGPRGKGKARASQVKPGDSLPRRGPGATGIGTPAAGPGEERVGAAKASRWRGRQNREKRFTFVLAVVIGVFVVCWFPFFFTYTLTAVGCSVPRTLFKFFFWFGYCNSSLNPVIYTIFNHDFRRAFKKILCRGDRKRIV

Mu-type opioid receptor [4] = biological target: T2, Mu-type opioid receptor (Homo sapiens, UniProt P35372); experiment: Activation of mu opioid receptor-1 (unknown origin) expressed in CHO cells assessed as beta-arrestin-2 recruitment at 10 uM after 90 mins by beta-galactosidase complementation assay; assay type: cell-based; conditions: 1.5 h
T2 sequence (P35372 whole entry): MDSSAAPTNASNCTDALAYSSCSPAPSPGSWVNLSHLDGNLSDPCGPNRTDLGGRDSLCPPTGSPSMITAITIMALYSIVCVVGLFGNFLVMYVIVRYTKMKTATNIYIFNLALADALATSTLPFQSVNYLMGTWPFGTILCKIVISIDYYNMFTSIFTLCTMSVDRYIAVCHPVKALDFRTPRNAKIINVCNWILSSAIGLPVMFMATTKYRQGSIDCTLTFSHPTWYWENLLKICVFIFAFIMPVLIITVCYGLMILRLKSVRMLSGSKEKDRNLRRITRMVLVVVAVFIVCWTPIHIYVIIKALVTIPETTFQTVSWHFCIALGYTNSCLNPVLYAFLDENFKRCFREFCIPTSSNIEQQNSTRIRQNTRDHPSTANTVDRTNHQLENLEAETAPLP

Mu-type opioid receptor [5] = biological target: T2, Mu-type opioid receptor; experiment: Inhibition of DAMGO-induced beta-arrestin-2 recruitment at mu opioid receptor-1 (unknown origin) expressed in CHO cells preincubated for 30 mins followed by DAMGO addition measured after 90 mins by beta-galactosidase complementation assay; assay type: cell-based
Mus musculus [6] = experiment: Antinociceptive activity in sc dosed CD-1 mouse assessed as increase in reaction time measured 15 mins post dose by radiant heat tail flick assay; assay type: functional; conditions: CD-1, sc, 0.25 h
Mus musculus [7] = experiment: Potency index, ratio of morphine ED50 to compound ED50 in sc dosed CD-1 mouse; assay type: functional
Mus musculus [8] = experiment: Antinociceptive activity in po dosed CD-1 mouse assessed as increase in reaction time administered through gavage measured 15 mins post dose by radiant heat tail flick assay; assay type: functional; conditions: CD-1, po, 0.25 h
Mus musculus [9] = experiment: Antinociceptive activity in sc dosed CD-1 mouse assessed as increase in latency latency to respond with hind paw lick or shake/flutter measured 15 mins post dose by hot plate test; assay type: functional; conditions: CD-1, sc, 0.25 h
Mus musculus [10] = experiment: Antinociceptive activity in CD-1 mouse assessed as increase in reaction time at 1.5 mg/kg, sc measured 15 mins post dose in presence of mu opioid receptor antagonist beta-FNA by radiant heat tail flick assay; assay type: functional, organism-based
Mus musculus [11] = experiment: Antinociceptive activity in CD-1 mouse assessed as increase in reaction time at 1.5 mg/kg, sc measured 15 mins post dose in presence of delta opioid receptor antagonist NTI by radiant heat tail flick assay; assay type: functional, organism-based
Mus musculus [12] = experiment: Antinociceptive activity in CD-1 mouse assessed as increase in reaction time at 1.5 mg/kg, sc measured 15 mins post dose in presence of kappa opioid receptor antagonist norBNI by radiant heat tail flick assay; assay type: functional, organism-based
Mus musculus [13] = experiment: Antinociceptive activity in CD-1 mouse assessed as increase in reaction time at 1.5 mg/kg, sc administered on day 6 after DOR1-exon3 antisense oligodeoxynucleotide injection on day 1, 3 and 5 by radiant heat tail flick assay; assay type: functional, organism-based
Mus musculus [14] = experiment: Ratio of ED50 for sc dosed CD-1 mouse administered twice daily at dosing intervals of 12 hrs for 5 days to ED50 for sc dosed CD-1 mouse measured 15 mins post dose; assay type: functional
[15] = Toxicity in CD-1 mouse assessed as physical dependence by measuring number of jumps at 1.5 mg/kg, sc bid for 22 days followed by opioid antagonist naloxone injection on day 22 measured for 15 mins post last dose; assay type: organism-based; conditions: in vivo, 0.25 h
[16] = Toxicity in CD-1 mouse assessed as physical dependence by measuring number of jumps at 1.5 mg/kg, sc bid for 29 days followed by opioid antagonist naloxone injection on day 29 measured for 15 mins post last dose; assay type: organism-based; conditions: in vivo, 0.25 h
[17] = Toxicity in C57BL/6 mouse assessed as decrease in respiratory rate at 3 mg/kg, sc measured at 15 to 35 mins post dose relative to control; assay type: organism-based; design: scale not given: the % may be the effect or the level left; conditions: in vivo

Sequence of Delta-type opioid receptor (P32300 whole entry, canonical isoform): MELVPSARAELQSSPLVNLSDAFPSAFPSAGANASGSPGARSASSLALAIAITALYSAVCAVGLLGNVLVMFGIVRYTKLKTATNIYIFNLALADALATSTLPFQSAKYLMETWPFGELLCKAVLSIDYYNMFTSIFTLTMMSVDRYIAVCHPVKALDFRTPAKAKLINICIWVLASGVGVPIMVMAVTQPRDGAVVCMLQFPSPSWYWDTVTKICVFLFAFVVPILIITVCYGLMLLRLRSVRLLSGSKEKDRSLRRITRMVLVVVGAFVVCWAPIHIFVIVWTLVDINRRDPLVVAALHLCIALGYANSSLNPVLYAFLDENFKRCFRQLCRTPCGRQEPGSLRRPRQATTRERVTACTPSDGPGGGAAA

CC[C@@H]1CN2CC[C@]3(Nc4cccc(OC)c4C3=O)[C@@H]2C[C@@H]1/C(=C\OC)C(=O)OC
Ki [1]: 0.003 µM | ED50 (Mus musculus [2]): 1.4 mg/kg | inhibition [3]: Active | Activity (Mu-type opioid receptor [4]): Not Active | IC50 (Mu-type opioid receptor [5]): 0.034 µM | inhibition (Mu-type opioid receptor [5]): Dose-dependent effect | ED50 (Mus musculus [6]): 0.76 mg/kg | Ratio ED50 (Mus musculus [7]): 3 | ED50 (Mus musculus [8]): 7.5 mg/kg | ED50 (Mus musculus [9]): 0.99 mg/kg | Activity (Mus musculus [10]): inactive | Activity (Mus musculus [11]): Active | Activity (Mus musculus [12]): Active | Activity (Mus musculus [13]): Active | Ratio ED50 (Mus musculus [14]): <2 | Activity [15]: 13 | Activity [16]: 14 | Activity [17]: 15%
